Reference: paper PMC10818308, “Phytochemicals from Pterocarpus angolensis DC and Their Cytotoxic Activities against Breast Cancer Cells” (Plants, 2024)
Converted amounts (≈) assume the structure as drawn.

Key:
[1] = system: 2E1 human liver microsomal; set-up: method as in PMID 30122094; details: read-out: inhibition of 2E1; cited from earlier work
MCF-7 = system: MCF-7; set-up: method as in PMID 28619518; details: 48 h; read-out: activity against MCF-7; cited from earlier work
[2] = system: hormone receptor-positive breast cancer cell line (MCF-7); test: Resazurin cytotoxicity assay, MCF-7; assay type: cell-based; details: for IC50: Homo sapiens, MCF7; for SI (Selectivity Index), IC50 of MCF-12A/IC50 of MCF-7: MCF-7 versus MCF-12A
[3] = system: triple-negative breast cancer (HCC70) cell line; test: Resazurin cytotoxicity assay, HCC70; assay type: cell-based; details: for IC50 (µM) HCC70 / IC50: HCC70 cells, 96 h treatment, resazurin; for SI (Selectivity Index), IC50 of MCF-12A/IC50 of HCC70: HCC70 versus MCF-12A; for IC50: Homo sapiens
Description: (§1) The cytotoxicity of the pure compounds was evaluated using the in vitro cell culture against triple-negative breast cancer (HCC70) cell lines, hormone receptor-positive breast cancer (MCF-7), and non-tumorigenic epithelial cell lines derived from breast tissue (MCF-12A). A compound’s ability to inhibit a particular biochemical function is determined by its half-maximum inhibitory concentration (IC50). Etoposide was used as the positive control.
(§2) The cell viability after treatment with the isolated pure compounds of P. angolensis was analyzed using the resazurin assay in commercially available established cell lines purchased from the American Type Culture Collection. Triple-negative breast cancer cell line (HCC70) (estrogen receptor (ER)^−, progesterone receptor (PR), (HER-2)^−, (ATCC-CRL-2315)), hormone receptor-positive (ER^+, PR ^+, HER-2) breast cancer cell line (MCF-7) (ATCC: HTB-22), and non-tumorigenic breast epithelial cell line (MCF-12A) (ATCC: CRL-10782, a kind gift from Anna-Mart Engelbrecht, Stellenbosch University, Stellenbosch, South Africa) were maintained in culture in a 9% CO2 incubator at 37 °C. The HCC70 cell line was cultured in RPMI-1640 media (Gibco, Trenton, MI, USA) supplemented with 10% (v/v) fetal bovine serum (FBS) (BioWest, Nuaillé, France), 1% (v/v) 100 U/mL penicillin, streptomycin, and amphotericin (PSA) (Lonza, Basel, Switzerland), 1% (v/v) GlutaMAX^TM (Gibco) and 0.25% (v/v) sodium bicarbonate (Gibco). The MCF-7 cell line cell was cultured in Dulbecco’s Modified Eagles Medium (DMEM) (Gibco) supplemented with 10% (v/v) FBS, 1% (v/v) PSA and 1% (v/v) GlutaMAX^TM. The MCF-12A cell line was cultured in DMEM/Ham’s F-12 (BioWest) supplemented with 10% (v/v) FBS, 1% (v/v) PSA, 20 ng/mL human epidermal growth factor (Sigma, St. Louis, MO, USA), 100 ng/mL cholera toxin (Sigma), 500 ng/mL hydrocortisone (Abcam, Cambridge, UK) and 10 μg/mL insulin (Novo Nordisk, Bagsværd, Denmark). All cells were seeded into 96-well plates at a density of 5000 cells per well and allowed to adhere for the night in a 9% CO2 incubator at 37 °C. The cells were subsequently treated for 96 h at 37 °C in an incubator with 9 percent CO2 with the isolated compounds with […] at concentrations ranging from 15.63 to 500.00 μM or with 0.2% (v/v) DMSO (Sigma) as a vehicle control. Thereafter, 0.54 nM of resazurin (Glentham Life Sciences, Corsham, UK) solution was added, and cells were then cultured for two to four hours at 37 °C in an incubator with 9% CO2. A Spectramax spectrophotometer (Molecular Devices, Sunnyvale, CA, USA) was used to measure the fluorescence of the resulting solutions. The excitation and emission wavelengths were set at […], respectively. The experiment was repeated in technical triplicate, and the data were analyzed using GraphPad Prism (Boston, MA, USA). […] The selectivity index (SI) value of each compound was calculated as the ratio of IC50 of MCF-12A/IC50 of HCC70 or MFC-7 of the same compound, where an SI > 1 implies toxicity that is preferentially toxic to cancer cells compared to non-cancerous cells.

[4] = system: non-tumorigenic breast epithelial cell line (MCF-12A); test: Resazurin cytotoxicity assay, MCF-12A; assay type: cell-based; details: Homo sapiens, MCF-12A cells, 96 h treatment, read-out: IC50 (µM) MCF12A
Description: as §1, §2

CYP3A4 = system: CYP3A4; set-up: method as in PMID 30122094; details: read-out: inhibition of CYP3A4; cited from earlier work
Lactuca sativa seeds = system: Lactuca sativa seeds; set-up: method as in PMID 19127726; details: cited from earlier work
insect-derived sf9 = system: insect-derived sf9; set-up: method as in PMID 19127726; details: cited from earlier work
[5] = system: glioblastoma U87MG.EGFR cells, CEM/ADR5000 leukemia cells; set-up: method as in earlier work; details: read-out: IC50 cytotoxicity; cited from earlier work
CCRF-CEM cells = system: CCRF-CEM cells; set-up: method as in earlier work; details: read-out: IC50 cytotoxicity; cited from earlier work
[6] = system: HeLa cervical cancer cells; set-up: method as in doi:10.15408/jkv.v1i1.20068; details: read-out: IC50 cytotoxicity; cited from earlier work
[7] = system: oral epithelial carcinoma cells (KB/C152); set-up: method as in PMID 32334461; details: cited from earlier work
[8] = system: human ovarian cancer cell line, SKOV3; set-up: method as in PMID 32095097; details: SKOV3 cells; read-out: IC50 cytotoxicity; cited from earlier work
[9] = system: human endometrial carcinoma cell line HEC-1A; set-up: method as in PMID 32095097; details: HEC-1A cells; read-out: IC50 cytotoxicity; cited from earlier work
Staphylococcus aureus = system: Staphylococcus aureus; set-up: method as in PMID 19583913; details: cited from earlier work
[10] = system: Acinetobacter calcaoceuticus; set-up: method as in PMID 19583913; details: cited from earlier work
Staphylococcus typhi = system: Staphylococcus typhi; set-up: method as in PMID 19583913; details: cited from earlier work
Kocuria kristinae = system: Kocuria kristinae; set-up: method as in PMID 19583913; details: cited from earlier work
[11] = MCF-7 cells, 96 h treatment, resazurin

| Molecule | IC50 [4] [µM] | IC50 [2, 11] [µM] | SI (Selectivity Index), IC50 of MCF-12A/IC50 of MCF-7 [2] | SI (Selectivity Index), IC50 of MCF-12A/IC50 of HCC70 [3] | IC50 [3] [µM] | further results |
| --- | --- | --- | --- | --- | --- | --- |
| C[C@H]1C(=O)CC[C@@H]2[C@]1(C)CC[C@H]1[C@@]2(C)CC[C@@]2(C)[C@@H]3CC(C)(C)CC[C@]3(C)CC[C@]12C [Compound 1, friedelan-3-one] | 43.9 | – | – | – | – | IC50 [1]: 22.5 µM; IC50 (MCF-7): 1.2 µM; IC50 (µM) MCF7 [2, 11]: Non-Toxic; IC50 (µM) HCC70 [3]: Non-Toxic; IC50 (CYP3A4): 10.8 µM |
| C[C@H]1C(O)C(=O)CC2[C@]3(C)CC[C@@]4(C)C5CC(C)(C)CC[C@]5(C)CC[C@]4(C)C3CC[C@@]21C (stereo partly drawn) [Compound 2, 3α-hydroxyfriedel-2-one] | 84.2 | 157 | 0.53 | – | – | phytotoxicity against germination (Lactuca sativa seeds): no phytotoxicity; cytotoxicity effect on sf9 (insect-derived sf9): 8.32 µg/mL; IC50 (µM) HCC70 [3]: Non-Toxic |
| CC1=C(O)C(=O)CC2[C@]3(C)CC[C@@]4(C)C5CC(C)(C)CC[C@]5(C)CC[C@]4(C)C3CC[C@]12C (some centres unmarked) [Compound 3, 3-hydroxyfriedel-3-en-2-one] | 136 | 101 | 1.35 | 0.93 | 146 | melting point: 265 to 268 °C |
| C=C(C)[C@@H]1CC[C@]2(C)CC[C@]3(C)[C@H](CC[C@@H]4[C@@]5(C)CC[C@H](O)C(C)(C)[C@@H]5CC[C@]43C)[C@@H]12 [Compound 4, lup-20(29)-en-3-ol] | 36.6 | 149 | 0.25 | – | – | IC50 [5]: 13.6 to 69.4 µM; IC50 (CCRF-CEM cells): 0.02 to 66.8 µM; IC50 (µM) HCC70 [3]: Non-Toxic |
| CC[C@H](/C=C/[C@@H](C)[C@H]1CC[C@H]2[C@@H]3CC=C4C[C@@H](O)CC[C@]4(C)[C@H]3CC[C@]12C)C(C)C [Compound 5, Stigmasta-5-22-dien-3-ol] | 44.1 | 227 | 0.19 | 0.40 | 109 | IC50 [6]: 26.4 µM; IC50 cytotoxicity [7]: 81.18 µg/mL (≈ 197 µM) |
| COc1ccc(C(C)C(=O)c2ccc(OC)cc2O)cc1 (centres unmarked) [Compound 6, 4-O-methylangolensis] | 148 | 77.5 | 1.91 | 1.32 | 111 | melting point: 70 to 71 °C |
| CC(=O)OC1CCC2(C)C(CCC3(C)C2CC=C2C4CC(C)(C)CCC4(C(=O)O)CCC23C)C1(C)C (stereo not drawn) [Compound 7, (3β)-3-acetoxyolean-12-en-28-oic acid] | 143 | 83.1 | 1.72 | 0.97 | 147 | IC50 [8]: 8.3 µM; IC50 [9]: 0.8 µM |
| CCCCCCCCCCCCCCOC(=O)/C=C/c1ccc(O)c(OC)c1 [Compound 8, tetradecyl (E)-ferulate] | 6.95 | 223 | 0.03 | 0.05 | 128 | melting point: 68 to 70 °C |
| COc1cc([C@@H]2c3cc4c(cc3[C@@H](O[C@@H]3O[C@@H]5CO[C@@H](C)O[C@H]5[C@H](O)[C@H]3O)[C@H]3COC(=O)[C@H]23)OCO4)cc(OC)c1O [Etoposide, reference compound] | 10.9 | – | – | – | 44.8 | – |
| epicatechin-3-O-gallate | – | – | – | – | – | minimum inhibition concentration (MIC) (Staphylococcus aureus): 50 µg/mL; minimum inhibition concentration (MIC) [10]: 50 µg/mL |
| hexamer of epicatechin | – | – | – | – | – | minimum inhibition concentration (MIC) (Staphylococcus typhi): 25 µg/mL; minimum inhibition concentration (MIC) (Kocuria kristinae): 25 µg/mL |
